Data: patent US20260327214A1, “1,3,4-OXADIAZOLE DERIVATIVE COMPOUNDS AS HISTONE DEACETYLASE 6 INHIBITOR, AND USES THEREOF” (CHONG KUN DANG PHARMACEUTICAL CORP., priority 2022, published 2026)

Legend:
human recombinant HDAC1 = target: T1, human recombinant HDAC1 (Homo sapiens, UniProt Q13547); assay: HDAC1 enzyme activity inhibition test (HDAC Fluorometric Drug Discovery Kit); type: biochemical; conditions: 30° C., 60 minutes, 10 μM substrate
T1 construct: purchased Enzo Life Science BML-SE456
How it was run: (§1)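 IC50 derived from fluorescence (Ex 360, Em 460) following 30 min development with Developer II. Each reaction held 0.3 μg human recombinant HDAC1 or HDAC6, 10 μM Fluor de Lys SIRT1 substrate and 5-fold serially diluted compound, incubated 60 min at 30 °C.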

human recombinant HDAC6 = target: T2, human recombinant HDAC6 (Homo sapiens, UniProt Q9UBN7); assay: HDAC6 enzyme activity inhibition test (HDAC Fluorometric Drug Discovery Kit); type: biochemical; conditions: for HDAC6 selectivity (fold): HDAC6 over HDAC1; for IC50: human recombinant HDAC6, same protocol as HDAC1
T2 construct: purchased Calbiochem 382180
T2 sequence (Q9UBN7 1-1215): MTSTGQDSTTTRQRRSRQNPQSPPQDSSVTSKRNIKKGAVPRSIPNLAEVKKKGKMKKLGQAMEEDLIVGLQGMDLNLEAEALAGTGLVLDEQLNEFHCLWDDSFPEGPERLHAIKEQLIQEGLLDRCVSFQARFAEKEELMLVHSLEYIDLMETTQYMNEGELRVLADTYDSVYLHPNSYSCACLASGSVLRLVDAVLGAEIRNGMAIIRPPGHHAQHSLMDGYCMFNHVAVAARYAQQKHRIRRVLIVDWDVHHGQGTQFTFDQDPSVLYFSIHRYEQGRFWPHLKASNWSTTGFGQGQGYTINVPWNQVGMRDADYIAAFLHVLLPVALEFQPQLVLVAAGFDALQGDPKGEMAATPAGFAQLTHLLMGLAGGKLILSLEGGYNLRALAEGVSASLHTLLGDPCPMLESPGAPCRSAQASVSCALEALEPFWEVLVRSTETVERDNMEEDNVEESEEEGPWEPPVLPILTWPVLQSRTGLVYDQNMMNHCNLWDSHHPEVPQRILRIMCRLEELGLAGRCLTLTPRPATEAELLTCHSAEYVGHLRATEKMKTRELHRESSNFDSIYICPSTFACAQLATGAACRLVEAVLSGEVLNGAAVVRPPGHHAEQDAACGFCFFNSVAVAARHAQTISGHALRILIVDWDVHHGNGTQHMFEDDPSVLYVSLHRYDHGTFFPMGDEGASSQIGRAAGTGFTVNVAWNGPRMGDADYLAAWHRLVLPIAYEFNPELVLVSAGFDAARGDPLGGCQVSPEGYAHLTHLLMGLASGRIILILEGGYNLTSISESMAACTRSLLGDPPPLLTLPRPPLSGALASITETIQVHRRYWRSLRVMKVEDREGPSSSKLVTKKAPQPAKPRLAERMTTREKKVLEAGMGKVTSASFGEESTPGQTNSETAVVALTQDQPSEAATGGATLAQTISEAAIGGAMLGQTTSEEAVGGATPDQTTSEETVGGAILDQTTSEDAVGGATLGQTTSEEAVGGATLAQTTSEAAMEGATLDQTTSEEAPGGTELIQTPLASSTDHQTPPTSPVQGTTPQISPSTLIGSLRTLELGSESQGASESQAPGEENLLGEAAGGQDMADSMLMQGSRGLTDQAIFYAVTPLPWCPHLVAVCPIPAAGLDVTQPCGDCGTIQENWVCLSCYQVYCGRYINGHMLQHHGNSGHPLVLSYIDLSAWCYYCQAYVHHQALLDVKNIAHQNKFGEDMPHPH
How it was run: as §1

T1 sequence (Q13547 whole entry): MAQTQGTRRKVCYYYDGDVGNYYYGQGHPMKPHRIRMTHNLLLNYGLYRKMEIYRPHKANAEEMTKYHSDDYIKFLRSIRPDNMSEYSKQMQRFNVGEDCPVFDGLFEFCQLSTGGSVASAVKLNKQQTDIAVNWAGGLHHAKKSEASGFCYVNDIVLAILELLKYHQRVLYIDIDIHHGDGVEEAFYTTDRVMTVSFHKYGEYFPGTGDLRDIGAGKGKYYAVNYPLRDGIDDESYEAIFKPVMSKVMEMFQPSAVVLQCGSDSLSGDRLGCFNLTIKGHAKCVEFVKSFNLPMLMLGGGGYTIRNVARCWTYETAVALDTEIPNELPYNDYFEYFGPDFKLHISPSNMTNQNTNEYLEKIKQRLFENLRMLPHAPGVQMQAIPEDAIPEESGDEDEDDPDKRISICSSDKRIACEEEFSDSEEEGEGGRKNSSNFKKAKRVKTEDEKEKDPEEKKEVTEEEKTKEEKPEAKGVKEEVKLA

SMILES | IC50 (human recombinant HDAC1) | HDAC6 selectivity (fold) (human recombinant HDAC6) | IC50 (human recombinant HDAC6)
O=c1oc(-c2cccc(F)c2)cn1Cc1ccc(-c2nnc(C(F)F)o2)cn1 [Compound 143, 3-((5-(5-(difluoromethyl)-1,3,4-oxadiazol-2-yl)pyridin-2-yl)methyl)-5-(3-fluorophenyl)oxazol-2(3H)-one] | > 50 µM | 374 fold | 0.134 µM
O=C1OCC(c2ccccn2)=NN1Cc1ccc(-c2nnc(C(F)F)o2)cn1 [Compound 72, 3-[[5-[5-(difluoromethyl)-1,3,4-oxadiazol-2-yl]-2-pyridyl]methyl]-5-(2-pyridyl)-6H-1,3,4-oxadiazin-2-one] | > 50 µM | 420 fold | 0.119 µM
FC(F)c1nnc(-c2ccc(Cn3nc(-c4ccc(CN5CCCC5)cc4)oc3=S)nc2)o1 [Compound 93, 3-[[5-[5-(difluoromethyl)-1,3,4-oxadiazol-2-yl]-2-pyridyl]methyl]-5-[4-(pyrrolidin-1-ylmethyl)phenyl]-1,3,4-oxadiazol-2-thione] | > 50 µM | 2890 fold | 0.0173 µM
CN1CCN(c2ccc(-c3nn(Cc4ccc(-c5nnc(C(F)F)o5)cn4)c(=O)o3)cc2)CC1 [Compound 21, 3-[[5-[5-(difluoromethyl)-1,3,4-oxadiazol-2-yl]-2-pyridyl]methyl]-5-[4-(4-methylpiperazin-1-yl)phenyl]-1,3,4-oxadiazol-2-one] | > 50 µM | 446 fold | 0.112 µM
CN(C)Cc1cc(-c2nn(Cc3ccc(-c4nnc(C(F)F)o4)cn3)c(=S)o2)cs1 [Compound 131, 3-[[5-[5-(difluoromethyl)-1,3,4-oxadiazol-2-yl]-2-pyridyl]methyl]-5-[5-[(dimethylamino)methyl]-3-thienyl]-1,3,4-oxadiazol-2-thione] | > 50 µM | 612 fold | 0.0817 µM
Fc1c(-c2nn(Cc3ccc(-c4nnc(C(F)F)o4)cn3)c(=S)o2)cccc1C1CCN(C2CCC2)CC1 [Compound 81, 5-[3-(1-cyclobutyl-4-piperidyl)-2-fluoro-phenyl]-3-[[5-[5-(difluoromethyl)-1,3,4-oxadiazol-2-yl]-2-pyridyl]methyl]-1,3,4-oxadiazol-2-thione] | > 50 µM | 576 fold | 0.0868 µM
O=c1oc(-c2ccccc2)nn1Cc1ccc(-c2nnc(C(F)F)o2)cn1 [Compound 1, 3-((5-(5-(difluoromethyl)-1,3,4-oxadiazol-2-yl)pyridin-2-yl)methyl)-5-phenyl-1,3,4-oxadiazol-2 (3H)-one] | > 50 µM | 416 fold | 0.12 µM
CN1CC(N2CCC(c3cccc(-c4nn(Cc5ccc(-c6nnc(C(F)F)o6)cn5)c(=O)o4)c3F)CC2)C1 [Compound 27, 3-[[5-[5-(difluoromethyl)-1,3,4-oxadiazol-2-yl]-2-pyridyl]methyl]-5-[2-fluoro-3-[1-(1-methylazetidin-3-yl)-4-piperidyl]phenyl]-1,3,4-oxadiazol-2-one] | > 50 µM | 420 fold | 0.119 µM
Fc1cc(-c2nnc(C(F)F)o2)cnc1Cn1nc(-c2cccc(CN3CCCCC3)c2)oc1=S [Compound 119, 3-[[5-[5-(difluoromethyl)-1,3,4-oxadiazol-2-yl]-3-fluoro-2-pyridyl]methyl]-5-[3-(1-piperidylmethyl)phenyl]-1,3,4-oxadiazol-2-thione] | > 50 µM | 590 fold | 0.0848 µM
CC(C)N1CCN(c2cccc(-c3nn(Cc4ccc(-c5nnc(C(F)F)o5)cn4)c(=O)o3)c2)CC1 [Compound 38, 3-[[5-[5-(difluoromethyl)-1,3,4-oxadiazol-2-yl]-2-pyridyl]methyl]-5-[3-(4-isopropylpiperazin-1-yl)phenyl]-1,3,4-oxadiazol-2-one] | > 50 µM | 988 fold | 0.0506 µM
O=c1oc(-c2ccc(CN3CCC3)cc2)nn1Cc1ccc(-c2nnc(C(F)F)o2)cn1 [Compound 132, 5-[4-(azetidin-1-ylmethyl)phenyl]-3-[[5-[5-(difluoromethyl)-1,3,4-oxadiazol-2-yl]-2-pyridyl]methyl]-1,3,4-oxadiazol-2-one] | > 50 µM | 484 fold | 0.103 µM
CC(C)N1CCN(c2cccc(-c3nn(Cc4ccc(-c5nnc(C(F)F)o5)cn4)c(=O)o3)n2)CC1 [Compound 6, 3-[[5-[5-(difluoromethyl)-1,3,4-oxadiazol-2-yl]-2-pyridyl]methyl]-5-[6-(4-isopropylpiperazin-1-yl)-2-pyridyl]-1,3,4-oxadiazol-2-one] | > 50 µM | 1078 fold | 0.0464 µM
Cn1ccc2cc(-c3nn(Cc4ccc(-c5nnc(C(F)F)o5)cn4)c(=O)o3)ccc21 [Compound 19] | > 50 µM | 1511 fold | 0.0331 µM
CC(C)N1CCN(c2cc(-c3nn(Cc4ccc(-c5nnc(C(F)F)o5)cn4)c(=S)o3)ccn2)CC1 [Compound 105, 3-[[5-[5-(difluoromethyl)-1,3,4-oxadiazol-2-yl]-2-pyridyl]methyl]-5-[2-(4-isopropylpiperazin-1-yl)-4-pyridyl]-1,3,4-oxadiazol-2-thione] | > 50 µM | 734 fold | 0.0681 µM
Fc1cccc(-c2nn(Cc3ncc(-c4nnc(C(F)F)o4)cc3F)c(=S)o2)c1 [Compound 48, 3-[[5-[5-(difluoromethyl)-1,3,4-oxadiazol-2-yl]-3-fluoro-2-pyridyl]methyl]-5-(3-fluorophenyl)-1,3,4-oxadiazol-2-thione] | > 50 µM | 437 fold | 0.114 µM
O=c1oc(-c2cccc3[nH]ccc23)nn1Cc1ncc(-c2nnc(C(F)F)o2)cc1F [Compound 35, 3-[[5-[5-(difluoromethyl)-1,3,4-oxadiazol-2-yl]-3-fluoro-2-pyridyl]methyl]-5-(1H-indol-4-yl)-1,3,4-oxadiazol-2-one] | > 50 µM | 643 fold | 0.0778 µM
O=c1oc(-c2ccc(N3CCNCC3)cc2)nn1Cc1ccc(-c2nnc(C(F)F)o2)cn1 [Compound 20, 3-[[5-[5-(difluoromethyl)-1,3,4-oxadiazol-2-yl]-2-pyridyl]methyl]-5-(4-piperazin-1-ylphenyl)-1,3,4-oxadiazol-2-one] | > 50 µM | 653 fold | 0.0766 µM
O=c1oc(-c2ccsc2)nn1Cc1ccc(-c2nnc(C(F)F)o2)cn1 [Compound 16, 3-[[5-[5-(difluoromethyl)-1,3,4-oxadiazol-2-yl]-2-pyridyl]methyl]-5-(3-thienyl)-1,3,4-oxadiazol-2-one] | > 50 µM | 551 fold | 0.0908 µM
Fc1cc(-c2nnc(C(F)F)o2)cnc1Cn1nc(-c2cccnc2)oc1=S [Compound 62, 3-[[5-[5-(difluoromethyl)-1,3,4-oxadiazol-2-yl]-3-fluoro-2-pyridyl]methyl]-5-(3-pyridyl)-1,3,4-oxadiazol-2-thione] | > 50 µM | 500 fold | 0.1 µM
FC(F)c1nnc(-c2ccc(Cn3nc(-c4csc(CN5CCC5)c4)oc3=S)nc2)o1 [Compound 134, 5-[5-(azetidine-1-ylmethyl)-3-thienyl]-3-[[5-[5-(difluoromethyl)-1,3,4-oxadiazol-2-yl]-2-pyridyl]methyl]-1,3,4-oxadiazol-2-thione] | > 50 µM | 680 fold | 0.0735 µM
